Where “and” joins values, the source holds several entries; their conditions need not be identical. Equal entries are not always repeated.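 Values below derive from 48-hour exposures of cells grown in 96-well plates, with endpoints linearly interpolated between the two concentrations bracketing the appropriate inhibition level. GI50 = concentration required for 50% inhibition of growth. TGI is the concentration that stops growth completely.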
Legend:
Assay in all cases: DTP human tumour cell line panel, 48 h
OVCAR-4 ovarian = system: OVCAR-4 ovarian
KM12 colon = system: KM12 colon
TK-10 renal = system: TK-10 renal
COLO 205 colon = system: COLO 205 colon
LOX IMVI melanoma = system: LOX IMVI melanoma
OVCAR-8 ovarian = system: OVCAR-8 ovarian
MDA-MB-231 breast = system: MDA-MB-231 breast
IGROV1 ovarian = system: IGROV1 ovarian
SF-268 CNS = system: SF-268 CNS
NCI/ADR-RES ovarian = system: NCI/ADR-RES ovarian

CCOC(=O)c1csc(NC(=O)COc2cccc(/C=C3\CSc4ccccc4C3=O)c2)n1
GI50 (OVCAR-4 ovarian): 3.69 µM
TGI (OVCAR-4 ovarian): 17.9 µM
GI50 (KM12 colon): 0.289 µM
TGI (KM12 colon): 1.35 µM
GI50 (TK-10 renal): 2.11 µM
TGI (TK-10 renal): 9.62 µM
GI50 (COLO 205 colon): 8.58 µM
TGI (COLO 205 colon): 22.6 µM
GI50 (LOX IMVI melanoma): 0.071 µM
TGI (LOX IMVI melanoma): 0.208 µM
GI50 (OVCAR-8 ovarian): 1.59 µM
TGI (OVCAR-8 ovarian): 6.97 µM
GI50 (MDA-MB-231 breast): 3.87 µM
TGI (MDA-MB-231 breast): 19.1 µM
GI50 (IGROV1 ovarian): 0.166 µM
TGI (IGROV1 ovarian): 0.363 µM
GI50 (SF-268 CNS): 0.204 µM
TGI (SF-268 CNS): 0.502 µM
GI50 (NCI/ADR-RES ovarian): 2.46 µM
TGI (NCI/ADR-RES ovarian): 5.66 µM

COc1ccc(CNc2cnc3cc(N)cc(N)c3n2)cc1
GI50 (OVCAR-4 ovarian): 64.5 µM
TGI (OVCAR-4 ovarian): > 100 µM
GI50 (KM12 colon): 23.5 µM
TGI (KM12 colon): 67.6 µM
GI50 (TK-10 renal): 27 µM
TGI (TK-10 renal): 64.2 µM
GI50 (COLO 205 colon): 33.6 µM
TGI (COLO 205 colon): > 100 µM
GI50 (LOX IMVI melanoma): 17.4 µM
TGI (LOX IMVI melanoma): 32 µM
GI50 (OVCAR-8 ovarian): 19.7 µM
TGI (OVCAR-8 ovarian): 39.8 µM
GI50 (MDA-MB-231 breast): 14.2 µM
TGI (MDA-MB-231 breast): 29.6 µM
GI50 (IGROV1 ovarian): 11.2 µM
TGI (IGROV1 ovarian): 29 µM
GI50 (SF-268 CNS): 28.9 µM
TGI (SF-268 CNS): 81.8 µM
GI50 (NCI/ADR-RES ovarian): 25.5 µM
TGI (NCI/ADR-RES ovarian): 76.2 µM

CC(CCCC1SCC2NC(=O)NC21)C(=O)O (configuration not stated)
TGI (OVCAR-4 ovarian): > 100 µM
TGI (KM12 colon): > 100 µM
TGI (TK-10 renal): > 100 µM
TGI (COLO 205 colon): > 100 µM
TGI (LOX IMVI melanoma): > 100 µM
TGI (OVCAR-8 ovarian): > 100 µM
TGI (MDA-MB-231 breast): > 100 µM
TGI (IGROV1 ovarian): > 100 µM
TGI (SF-268 CNS): > 100 µM
TGI (NCI/ADR-RES ovarian): > 100 µM

CCOc1c(C#N)c2c(N)ncnc2n1C1OC(CO)C(O)C1O (configuration not stated)
GI50 (OVCAR-4 ovarian): 3.75 µM
TGI (OVCAR-4 ovarian): > 57.2 µM
GI50 (KM12 colon): 3.11 µM
TGI (KM12 colon): > 44.2 µM
GI50 (TK-10 renal): 3.05 µM
TGI (TK-10 renal): > 28 µM
GI50 (COLO 205 colon): 2.17 µM
TGI (COLO 205 colon): 10 µM
GI50 (LOX IMVI melanoma): 2.98 µM
TGI (LOX IMVI melanoma): > 100 µM
GI50 (OVCAR-8 ovarian): 4.81 µM
TGI (OVCAR-8 ovarian): > 100 µM
GI50 (MDA-MB-231 breast): 6.15 µM
TGI (MDA-MB-231 breast): > 82.9 µM
GI50 (IGROV1 ovarian): 0.761 µM
TGI (IGROV1 ovarian): 2.54 µM
GI50 (SF-268 CNS): 3.37 µM
TGI (SF-268 CNS): 65.4 µM
GI50 (NCI/ADR-RES ovarian): 4.51 µM
TGI (NCI/ADR-RES ovarian): > 100 µM

C=C1C(=O)OC2CC3(C)CCCC(C)C3=CC12 (configuration not stated)
TGI (OVCAR-4 ovarian): 20.2 µM
TGI (KM12 colon): 25.1 µM
TGI (TK-10 renal): 10.1 µM
TGI (COLO 205 colon): 2.56 µM
TGI (LOX IMVI melanoma): 4.42 µM
TGI (OVCAR-8 ovarian): 37.3 µM
TGI (MDA-MB-231 breast): 26.9 µM
TGI (IGROV1 ovarian): 22.4 µM
TGI (SF-268 CNS): 23.1 µM
TGI (NCI/ADR-RES ovarian): 56.7 µM

NNC(=S)Nc1cccc(Cl)c1
TGI (OVCAR-4 ovarian): > 100 µM
TGI (KM12 colon): > 100 µM
TGI (TK-10 renal): > 100 µM
TGI (COLO 205 colon): > 100 µM
TGI (LOX IMVI melanoma): > 100 µM
TGI (OVCAR-8 ovarian): > 100 µM
TGI (MDA-MB-231 breast): > 100 µM
TGI (IGROV1 ovarian): > 100 µM
TGI (SF-268 CNS): > 100 µM
TGI (NCI/ADR-RES ovarian): > 100 µM

CC(C)CCC(=O)[C@@H](C)[C@H]1[C@@H](OC2OCC(O)C(O)C2NS(C)(=O)=O)C[C@H]2[C@@H]3CC=C4C[C@@H](O)CC[C@]4(C)[C@H]3CC[C@]12C (some centres not stated)
GI50 (OVCAR-4 ovarian): 5.12 µM
TGI (OVCAR-4 ovarian): 28.6 µM
GI50 (KM12 colon): 2.77 µM
TGI (KM12 colon): 11 µM
GI50 (TK-10 renal): 6.63 µM
TGI (TK-10 renal): 23.5 µM
GI50 (COLO 205 colon): 1.42 µM
TGI (COLO 205 colon): 5.92 µM
GI50 (LOX IMVI melanoma): 1.19 µM
TGI (LOX IMVI melanoma): 5.22 µM
GI50 (OVCAR-8 ovarian): 7.63 µM
TGI (OVCAR-8 ovarian): 37.2 µM
GI50 (MDA-MB-231 breast): 2 µM
TGI (MDA-MB-231 breast): 8.65 µM
GI50 (IGROV1 ovarian): 2.22 µM
TGI (IGROV1 ovarian): > 40 µM
GI50 (SF-268 CNS): 1.25 µM
TGI (SF-268 CNS): 6.99 µM
GI50 (NCI/ADR-RES ovarian): 9.82 µM
TGI (NCI/ADR-RES ovarian): > 40 µM

O=S(=O)(Nc1ccc2ccccc2c1)c1ccc(-c2cnc(C3CC3)o2)cc1
GI50 (OVCAR-4 ovarian): 3.22 µM
TGI (OVCAR-4 ovarian): 79.9 µM
GI50 (KM12 colon): 0.624 µM
TGI (KM12 colon): 14.7 µM
GI50 (TK-10 renal): 5.81 µM
TGI (TK-10 renal): > 100 µM
GI50 (COLO 205 colon): 1.79 µM
TGI (COLO 205 colon): 9.22 µM
GI50 (LOX IMVI melanoma): 0.725 µM
TGI (LOX IMVI melanoma): 17.1 µM
GI50 (OVCAR-8 ovarian): 2.88 µM
TGI (OVCAR-8 ovarian): 67.1 µM
GI50 (MDA-MB-231 breast): 2.81 µM
TGI (MDA-MB-231 breast): 14.2 µM
GI50 (IGROV1 ovarian): 1.08 µM
TGI (IGROV1 ovarian): 14 µM
GI50 (SF-268 CNS): 3.44 µM
TGI (SF-268 CNS): 24.5 µM
GI50 (NCI/ADR-RES ovarian): 0.713 µM
TGI (NCI/ADR-RES ovarian): 5.81 µM

NC(=Nc1nc(-c2ccccn2)cc2ccccc12)c1ccccn1
GI50 (OVCAR-4 ovarian): 0.0798 µM
GI50 (KM12 colon): 0.336 µM
TGI (KM12 colon): > 56.7 µM
GI50 (TK-10 renal): 0.198 µM
TGI (TK-10 renal): > 100 µM
GI50 (COLO 205 colon): 0.00195 µM
GI50 (LOX IMVI melanoma): 0.158 µM
TGI (LOX IMVI melanoma): 0.677 µM and 1.23 µM
GI50 (OVCAR-8 ovarian): 0.0505 µM
TGI (OVCAR-8 ovarian): 15.5 µM
GI50 (MDA-MB-231 breast): 0.941 µM
TGI (MDA-MB-231 breast): > 100 µM
GI50 (IGROV1 ovarian): 0.0212 µM
TGI (IGROV1 ovarian): > 24.1 µM
GI50 (SF-268 CNS): 0.111 µM
TGI (SF-268 CNS): 12.1 µM
GI50 (NCI/ADR-RES ovarian): 0.0434 µM

CC1=NN(C(=O)c2ccncc2)C(=O)C1N=Nc1ccc2ccccc2c1 (configuration not stated)
TGI (OVCAR-4 ovarian): > 100 µM
TGI (KM12 colon): > 100 µM
TGI (TK-10 renal): > 100 µM
TGI (COLO 205 colon): > 100 µM
TGI (LOX IMVI melanoma): > 100 µM
TGI (OVCAR-8 ovarian): > 100 µM
TGI (MDA-MB-231 breast): > 100 µM
TGI (IGROV1 ovarian): > 100 µM
TGI (SF-268 CNS): > 100 µM
TGI (NCI/ADR-RES ovarian): > 100 µM

CCCN1C(=O)/C(=C/c2ccc(O)cc2)SC1=Nc1ccc(OC)cc1
GI50 (OVCAR-4 ovarian): 13.4 µM
TGI (OVCAR-4 ovarian): 35.2 µM
GI50 (KM12 colon): 10.6 µM
TGI (KM12 colon): 28.7 µM
GI50 (TK-10 renal): 18.4 µM
TGI (TK-10 renal): 39 µM
GI50 (COLO 205 colon): 36.6 µM
TGI (COLO 205 colon): > 100 µM
GI50 (LOX IMVI melanoma): 15.4 µM
TGI (LOX IMVI melanoma): 30.8 µM
GI50 (OVCAR-8 ovarian): 18.2 µM
TGI (OVCAR-8 ovarian): 37.1 µM
GI50 (MDA-MB-231 breast): 14.1 µM
TGI (MDA-MB-231 breast): 31 µM
GI50 (IGROV1 ovarian): 30 µM
TGI (IGROV1 ovarian): > 100 µM
GI50 (SF-268 CNS): 17.3 µM
TGI (SF-268 CNS): 74.9 µM
GI50 (NCI/ADR-RES ovarian): 14 µM
TGI (NCI/ADR-RES ovarian): 29.5 µM
